What was measured:
MDA-MB-231 cells [1] = assay: ROS assay; assay type: cell-based
[2] = system: HeLa cervical cancer cell line; assay: ROS assay; assay type: cell-based; conditions: 100 μM (highest concentration)
[3] = system: HT-29 colon cancer cell line; assay: ROS assay; assay type: cell-based; conditions: HT-29, 100 μM (highest concentration)
MDA-MB-231 cells [4] = system: MDA-MB-231 cells

EC50 (MDA-MB-231 cells [4]) [µM] | Compound | ROS inducing effect (MDA-MB-231 cells [1]; MDA-MB-231 breast cancer cells) | difference in concentration to exhibit the same ROS effect in the other two cancer cell lines (MDA-MB-231 cells [1]; MDA-MB-231 vs HeLa and HT-29) [x] | ROS inducing effect [2] | ROS inducing effect [3] | ROS (reactive oxygen species fold increase) (MDA-MB-231 cells [1]; MDA-MB-231 cells, concentration not given) [fold increase]
 | COC[C@H]1OC(=O)c2coc3c2[C@@]1(C)C1=C(C3=O)[C@@H]2CCC(=O)[C@@]2(C)C[C@H]1OC(C)=O [wortmannin] | potent ROS inducing agent | 1000 | Strong ROS inducing effect | Strong ROS inducing effect | 
8.93 | acetylwortmannolone [Compound 1] |  |  |  |  | 1.58

From publication PMC5488875 (Anticancer research, 2017)
